{
  "source": "patent US11484608B2",
  "about": "“Non-invasive assessment of hepatic mitochondrial metabolism by positional isotopomer NMR tracer analysis (PINTA)” (YALE UNIVERSITY, priority 2017, dated 2022)",
  "test_system": "hepatic glucose production, VPC and VCS (InsP3R-I signaling)",
  "assay": "Acute 2 hr glucagon infusion in WT and liver-specific InsP3R-I KO mice",
  "type": "in vivo, mouse",
  "text": "All protocols were approved by the Yale University Animal Care and Use Committee. Liver-specific InsP3R-I KO mice were generated as described (Feriod, et al. Hepatology Communications 1, 23-35, 2017) and in all experiments, littermates were studied at 10-12 weeks of age. They were fed standard chow (Teklad #2018) and housed on a 12 hr light/dark cycle in the Yale Animal Resources Center. To knock down ATGL in a liver-specific manner, an adeno-associated virus targeting ATGL (Vector BioLabs, 10^12 gc per mouse) was administered by retro-orbital injection four weeks prior to studies. Male mice were used for in vivo studies, while female mice were used for in vitro studies, unless otherwise specified. One week prior to in vivo studies, mice underwent surgery under isoflurane anesthesia to place a catheter in the jugular vein. Post-surgical recovery was confirmed by regaining the pre-surgical body weight prior to any in vivo studies. They were fasted overnight, unless otherwise stated, prior to in vivo studies. […] Mice were euthanized using IV pentobarbital at the conclusion of the terminal study.\nIn the rat studies, blood was collected from the jugular venous catheter. In both species, samples were immediately centrifuged (12,000 rpm) to separate plasma from red blood cells. PINTA analysis of hepatic mitochondrial fluxes was employed in both rats and mice (see Example 1). Briefly, mice were infused with a two-hour primed (5 min, 3×)-continuous infusion of [3-^13C] lactate (40 μmol kg^−1 min^−1) and [1,2,3,4,5,6,6-^2H7] glucose (0.1 mg kg^−1 min^−1). Rats were infused with lactate at the same rate, as well as [3-^3H] glucose (0.1 mCi kg^−1 min^−1). At the conclusion of the study, animals were euthanized with IV pentobarbital.\nTotal glucose turnover (i.e. hepatic glucose production) was measured by determining the specific activity of [^3H] glucose in plasma using a scintillation counter, and the VPC/VHGP ratio was calculated using the equation\n[formula] and calculated absolute VCS by dividing VPC by VPC/VCS. The derivations of each equation are described in detail in Example 1. The possible contribution of [^13C] bicarbonate to label the TCA cycle was corrected for as follows. Liver [^13C] bicarbonate enrichment was measured by GC-MS (HP-1 column: 12 m×0.2 mm×0.33 μm film, isothermal: 110° C.). Liver tissue (˜[…]) was placed in a GC-MS vial, purged with N2 gas, and sealed. To each sample, a saturated aqueous solution of citric acid (50 μl) was injected into the vial through the cap. After ten minutes, CO2 was sampled from the head-space and ions with m/z 44 and 45 daltons were monitored using electron impact ionization.\nPlasma glucose concentrations were measured using a YSI Glucose Analyzer. […] Plasma NEFA concentrations were measured using the Wako NEFA assay, while plasma glycerol and plasma and liver amino acid concentrations were measured by GC/MS. […] Protein concentrations were measured by Western blot, using antibodies from Santa Cruz (PC, PEPCK, CAMKII), Cell Signaling (ATGL, pCAMKIV, CAMKIV, pCRTC2, CRTC2, pACC, ACC, pAMPK, AMPK, pHSL, HSL, GAPDH, and β-actin), Novus Biologicals (pCAMKII), Abcam (pATGL), LSBio (pInsP3R-I), and BD Transduction Laboratories (InsP3R-II, InsP3R-III, PKCε).",
  "data": [
    {"substance": "glucagon", "values": [
      {"measurement": "hepatic CAMKII phosphorylation", "setting": "InsP3R-I-dependent, CAMKIV not", "value": "stimulated"},
      {"measurement": "increases in rates of HGP", "setting": "PINTA, acute glucagon infusion", "value": "~25", "unit": "%"},
      {"measurement": "increase in InsP3R-I phosphorylation", "setting": "WT livers", "value": "two-fold"},
      {"measurement": "increase in hepatic mitochondrial oxidation (VCS)", "setting": "WT mice", "value": "five-fold"},
      {"measurement": "plasma non-esterified fatty acid (NEFA) concentrations", "setting": "WT mice", "value": "reduced"},
      {"measurement": "increase in hepatic ATGL S406 phosphorylation", "setting": "WT mice in vivo, not InsP3R-I KO", "value": "three-fold"},
      {"measurement": "plasma glucose and insulin concentrations", "setting": "WT mice, acute glucagon infusion", "value": "modest increase"},
      {"measurement": "increase in hepatic pyruvate dehydrogenase flux (VPDH)", "setting": "WT mice, not InsP3R-I KO", "value": 7, "unit": "fold"},
      {"measurement": "hepatic malonyl-CoA content", "setting": "acute glucagon infusion", "value": "independently of any changes"},
      {"measurement": "increases in hepatic long-chain acyl-CoA and acetyl-CoA content", "setting": "acute glucagon infusion", "value": "35-60%"},
      {"measurement": "VPK as percentage of hepatic VPC flux", "setting": "acute glucagon study", "value": "15-35%"},
      {"measurement": "cAMP concentrations, protein kinase A activity, CRTC2 phosphorylation (liver)", "setting": "both genotypes", "value": "increased"},
      {"measurement": "hormone-sensitive lipase (HSL) phosphorylation", "setting": "both genotypes", "value": "increased"},
      {"measurement": "hepatic mitochondrial oxidation", "setting": "liver-specific InsP3R-I knockout mice", "value": "failed to exhibit any increases"},
      {"measurement": "pyruvate kinase flux (VPK)", "setting": "mice infused with glucagon", "value": "without any difference"}
    ]}
  ]
}
